Key:
Assay in all cases: Kinase panel profiling at 1 µmol/L (mobility shift assay, Carna)
MER = target: T1, MER (Homo sapiens, UniProt Q12866); format: biochemical; details: 1 µmol/L of BTK inhibitor
T1 construct: purchased Carna Biosciences
T1 sequence (Q12866 21-999): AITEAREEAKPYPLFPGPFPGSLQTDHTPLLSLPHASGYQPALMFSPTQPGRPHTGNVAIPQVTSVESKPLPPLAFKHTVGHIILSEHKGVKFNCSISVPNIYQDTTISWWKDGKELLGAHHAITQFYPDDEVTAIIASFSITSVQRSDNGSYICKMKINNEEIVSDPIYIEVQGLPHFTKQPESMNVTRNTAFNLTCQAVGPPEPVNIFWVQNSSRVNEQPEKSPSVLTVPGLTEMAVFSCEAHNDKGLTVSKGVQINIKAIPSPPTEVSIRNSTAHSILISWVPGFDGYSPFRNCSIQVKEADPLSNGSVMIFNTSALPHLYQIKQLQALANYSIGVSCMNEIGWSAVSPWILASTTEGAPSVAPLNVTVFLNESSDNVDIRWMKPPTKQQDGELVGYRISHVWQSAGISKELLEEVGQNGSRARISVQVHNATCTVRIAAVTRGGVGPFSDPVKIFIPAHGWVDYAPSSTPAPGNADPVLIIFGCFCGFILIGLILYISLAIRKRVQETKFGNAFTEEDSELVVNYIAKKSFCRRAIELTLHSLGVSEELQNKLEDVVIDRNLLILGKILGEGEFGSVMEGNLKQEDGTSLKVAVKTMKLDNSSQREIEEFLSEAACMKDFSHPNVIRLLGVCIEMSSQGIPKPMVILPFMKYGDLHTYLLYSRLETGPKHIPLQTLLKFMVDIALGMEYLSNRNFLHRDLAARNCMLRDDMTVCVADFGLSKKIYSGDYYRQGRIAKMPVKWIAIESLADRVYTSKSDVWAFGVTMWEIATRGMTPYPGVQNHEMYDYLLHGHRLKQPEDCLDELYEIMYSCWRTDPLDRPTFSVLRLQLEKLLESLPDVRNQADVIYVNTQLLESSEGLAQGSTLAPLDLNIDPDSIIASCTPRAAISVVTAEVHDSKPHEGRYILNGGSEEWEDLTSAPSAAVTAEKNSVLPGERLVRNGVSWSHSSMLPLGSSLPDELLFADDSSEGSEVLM

FLT3 = target: T2, FLT3 (Homo sapiens, UniProt P36888); format: biochemical; details: 1 µmol/L of BTK inhibitor
T2 construct: purchased Carna Biosciences
T2 sequence (P36888 27-993): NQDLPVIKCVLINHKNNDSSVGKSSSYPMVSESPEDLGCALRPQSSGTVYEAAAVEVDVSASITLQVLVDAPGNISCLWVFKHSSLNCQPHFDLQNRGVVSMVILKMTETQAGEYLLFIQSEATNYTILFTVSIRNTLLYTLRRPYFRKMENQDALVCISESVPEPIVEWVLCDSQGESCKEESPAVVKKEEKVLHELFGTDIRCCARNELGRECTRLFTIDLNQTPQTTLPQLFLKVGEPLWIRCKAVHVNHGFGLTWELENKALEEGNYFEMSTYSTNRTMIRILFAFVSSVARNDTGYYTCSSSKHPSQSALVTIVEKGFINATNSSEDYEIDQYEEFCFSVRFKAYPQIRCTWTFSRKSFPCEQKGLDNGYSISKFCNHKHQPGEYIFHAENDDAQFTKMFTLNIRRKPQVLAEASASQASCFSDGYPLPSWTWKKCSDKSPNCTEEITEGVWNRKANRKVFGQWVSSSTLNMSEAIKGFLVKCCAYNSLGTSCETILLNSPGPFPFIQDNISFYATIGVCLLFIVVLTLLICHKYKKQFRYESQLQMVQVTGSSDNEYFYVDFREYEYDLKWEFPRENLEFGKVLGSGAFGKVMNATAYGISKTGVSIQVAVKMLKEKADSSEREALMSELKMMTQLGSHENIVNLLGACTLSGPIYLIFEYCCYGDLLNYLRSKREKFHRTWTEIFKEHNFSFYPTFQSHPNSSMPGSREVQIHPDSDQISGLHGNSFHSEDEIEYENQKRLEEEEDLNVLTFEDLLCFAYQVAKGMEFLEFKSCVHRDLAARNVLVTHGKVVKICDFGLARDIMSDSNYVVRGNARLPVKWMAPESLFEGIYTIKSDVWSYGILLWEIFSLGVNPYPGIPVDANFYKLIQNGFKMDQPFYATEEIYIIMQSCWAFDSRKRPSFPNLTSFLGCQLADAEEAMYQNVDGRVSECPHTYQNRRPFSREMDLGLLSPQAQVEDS

SGK3 = target: T3, SGK3 (Homo sapiens, UniProt Q96BR1); format: biochemical; details: 1 µmol/L of BTK inhibitor
T3 construct: purchased Carna Biosciences
T3 sequence (Q96BR1 1-496): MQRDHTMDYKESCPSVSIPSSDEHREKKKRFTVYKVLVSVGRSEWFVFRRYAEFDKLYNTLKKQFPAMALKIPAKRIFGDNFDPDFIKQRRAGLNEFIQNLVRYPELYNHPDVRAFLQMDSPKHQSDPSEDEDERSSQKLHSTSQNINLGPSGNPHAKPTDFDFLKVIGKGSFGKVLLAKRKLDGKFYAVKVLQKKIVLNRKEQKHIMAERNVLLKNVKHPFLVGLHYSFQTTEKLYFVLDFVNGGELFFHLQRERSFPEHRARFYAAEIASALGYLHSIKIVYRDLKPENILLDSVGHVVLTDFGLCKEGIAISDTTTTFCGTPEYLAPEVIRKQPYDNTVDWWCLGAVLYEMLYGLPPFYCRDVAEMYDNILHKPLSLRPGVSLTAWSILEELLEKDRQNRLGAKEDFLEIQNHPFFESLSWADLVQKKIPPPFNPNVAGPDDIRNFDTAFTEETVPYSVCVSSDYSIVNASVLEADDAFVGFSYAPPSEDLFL

Aurora B = Aurora B (Homo sapiens, UniProt Q96GD4); details: for Percentage inhibition of kinase enzyme activity: AurB, 1 µmol/L of BTK inhibitor
JNK1 = target: T4, JNK1 (Homo sapiens, UniProt P45983); format: biochemical; details: 1 µmol/L of BTK inhibitor
T4 construct: purchased Carna Biosciences
T4 sequence (P45983 whole entry): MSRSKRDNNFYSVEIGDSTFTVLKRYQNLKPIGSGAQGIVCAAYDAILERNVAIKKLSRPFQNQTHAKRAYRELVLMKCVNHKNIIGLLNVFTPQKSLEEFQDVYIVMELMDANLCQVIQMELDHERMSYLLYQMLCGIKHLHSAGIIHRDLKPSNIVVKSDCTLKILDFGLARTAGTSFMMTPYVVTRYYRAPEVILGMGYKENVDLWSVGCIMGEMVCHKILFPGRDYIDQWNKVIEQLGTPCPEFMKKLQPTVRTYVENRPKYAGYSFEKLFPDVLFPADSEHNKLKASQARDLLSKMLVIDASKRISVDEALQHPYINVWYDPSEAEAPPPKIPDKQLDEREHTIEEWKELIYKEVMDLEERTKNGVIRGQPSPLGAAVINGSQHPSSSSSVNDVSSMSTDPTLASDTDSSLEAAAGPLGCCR

Sequence of Aurora B (Q96GD4 whole entry): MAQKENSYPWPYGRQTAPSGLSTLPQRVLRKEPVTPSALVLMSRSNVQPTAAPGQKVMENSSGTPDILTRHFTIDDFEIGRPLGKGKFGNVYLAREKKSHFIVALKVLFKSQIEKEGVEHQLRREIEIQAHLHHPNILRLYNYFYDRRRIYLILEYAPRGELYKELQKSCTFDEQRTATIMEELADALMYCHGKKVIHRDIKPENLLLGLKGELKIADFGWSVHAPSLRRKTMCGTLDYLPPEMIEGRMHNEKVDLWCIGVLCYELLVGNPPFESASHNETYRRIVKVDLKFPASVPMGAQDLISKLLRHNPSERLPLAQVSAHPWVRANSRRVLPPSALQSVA
Sequence of Aurora B (Q9NQS7 803-916 partner limits assumed): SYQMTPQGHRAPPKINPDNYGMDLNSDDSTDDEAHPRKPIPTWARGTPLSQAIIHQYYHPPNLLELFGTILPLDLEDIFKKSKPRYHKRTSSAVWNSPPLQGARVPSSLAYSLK

With `CC#CC(=O)N1CCC[C@H]1c1nc(-c2ccc(C(=O)Nc3ccccn3)cc2)c2c(N)nccn12` [acalabrutinib] the “Percentage inhibition of kinase enzyme activity” value (shortened to “Percentage inhibition”) (MER) was -3.37%, the “Percentage inhibition” value (FLT3) was 3.27% and the “Percentage inhibition” value (SGK3) was -11.85%. The “Percentage inhibition” value (Aurora B) was 10.86% and the “Percentage inhibition” value (JNK1) was -0.88%.
With `C=CC(=O)N1CCC[C@@H](n2nc(-c3ccc(Oc4ccccc4)cc3)c3c(N)ncnc32)C1` [ibrutinib] the “Percentage inhibition” value (FLT3) was 62.77%, the “Percentage inhibition” value (SGK3) was 0.58% and the “Percentage inhibition” value (Aurora B) was -1.10%. For the same compound, the “Percentage inhibition” value (JNK1) was -2.33%.
In the case of `O=C(c1ccc(Oc2ccccc2)cc1Cl)c1c[nH]c2ncnc(N[C@@H]3CC[C@@H](CO)OC3)c12` [nemtabrutinib], the “Percentage inhibition” value (MER) is reported as 29.53%, the “Percentage inhibition” value (FLT3) is reported as 99.30% and the “Percentage inhibition” value (SGK3) is reported as -3.28%. For the same compound, the “Percentage inhibition” value (Aurora B) was 57.52% and the “Percentage inhibition” value (JNK1) was -3.89%.
`COc1ccc(F)cc1C(=O)NCc1ccc(-c2nn([C@@H](C)C(F)(F)F)c(N)c2C(N)=O)cc1` [pirtobrutinib] was tested, and the “Percentage inhibition” value (MER) was -2.75%, the “Percentage inhibition” value (FLT3) was -4.18% and the “Percentage inhibition” value (SGK3) was -2.68%. The “Percentage inhibition” value (Aurora B) was 88.69%, the inhibition at 1 µM (Aurora B; read-out: Inhibition of Aurora B) was > 75% and the “Percentage inhibition” value (JNK1) was -0.29%.
With `C=CC(=O)N1CCC([C@@H]2CCNc3c(C(N)=O)c(-c4ccc(Oc5ccccc5)cc4)nn32)CC1` [zanubrutinib] the “Percentage inhibition” value (MER) was -2.35% and the “Percentage inhibition” value (FLT3) was 6.34%.

From publication PMC12586182 (Frontiers in Oncology, 2025)
